Reference: US12077503B2, “Substituted cyclic amides and their use as herbicides” (FMC CORPORATION, priority 2015, dated 2024)

Legend:
Type in all cases: in vivo
[1] = tested on: ducksalad (Heteranthera limosa); assay: Test B flooded paddy test; details: Heteranthera limosa, 250 g ai/ha, Flood; 0 to 100 scale where 0 is no effect and 100 is complete control; read-out: Ducksalad plant response rating
Outline: (§1)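 2-leaf plants; pots flooded 3 cm over soil; cpd added to paddy water; depth held; greenhouse 13–15 d; visual rating vs controls, 0 = no effect, 100 = complete control.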

[2] = tested on: sedge, umbrella (small-flower umbrella sedge, Cyperus difformis); assay: Test B flooded paddy test; details: Cyperus difformis, 250 g ai/ha, Flood; 0 to 100 scale where 0 is no effect and 100 is complete control; read-out: Sedge, Umbrella plant response rating
Outline: as §1

rice (Oryra sativa) = assay: Test B flooded paddy test; details: Oryza sativa, 250 g ai/ha, Flood; 0 to 100 scale where 0 is no effect and 100 is complete control; read-out: Rice plant response rating
Outline: as §1

[3] = tested on: barnyardgrass (Echinochloa crus-galli); assay: Test B flooded paddy test; details: Echinochloa crus-galli, 250 g ai/ha, Flood; 0 to 100 scale where 0 is no effect and 100 is complete control; read-out: Barnyardgrass plant response rating
Outline: as §1

[4] = tested on: giant foxtail (Setaria faberii); assay: Test A preemergence; details: Setaria faberi, pre-emergence, 240 h; for pest or weed control at 125 g/ha: 125 g ai/ha, Preemergence, visual injury rating after approximately 10 d, read-out: Foxtail, Giant plant response rating (0 to 100 scale, 0 is no effect, 100 is complete control); for pest or weed control at 500 g/ha: 500 g ai/ha, preemergence, visual injury rating about 10 d after treatment, 0 to 100 scale (0 no effect, 100 complete control), read-out: Foxtail, Giant plant response rating
Outline: (§2)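 Seeded soil received test chemicals as a preemergence directed spray, and seedlings at one to two leaves, 2–10 cm tall, received them postemergence, in a non-phytotoxic, surfactant-containing solvent mixture. Pots were held in a greenhouse for approximately 10 d, then rated for injury from 0, no effect, to 100, complete control.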

[5] = tested on: ryegrass, Italian (Italian ryegrass, Lolium multiflorum); assay: Test A preemergence; details: Lolium multiflorum, pre-emergence, 240 h; for pest or weed control at 125 g/ha: 125 g ai/ha, Preemergence, visual injury rating after approximately 10 d, read-out: Ryegrass, Italian plant response rating (0 to 100 scale, 0 is no effect, 100 is complete control); for pest or weed control at 500 g/ha: 500 g ai/ha, preemergence, visual injury rating about 10 d after treatment, 0 to 100 scale (0 no effect, 100 complete control), read-out: Ryegrass, Italian plant response rating
Outline: as §2

[6] = tested on: ragweed (common ragweed, Ambrosia elatior); assay: Test A preemergence; details: Ambrosia artemisiifolia, pre-emergence, 240 h; for pest or weed control at 125 g/ha: 125 g ai/ha, Preemergence, visual injury rating after approximately 10 d, read-out: Ragweed plant response rating (0 to 100 scale, 0 is no effect, 100 is complete control); for pest or weed control at 500 g/ha: 500 g ai/ha, preemergence, visual injury rating about 10 d after treatment, 0 to 100 scale (0 no effect, 100 complete control), read-out: Ragweed plant response rating
Outline: as §2

[7] = tested on: pigweed (Amaranthus retroflexus); assay: Test A preemergence; details: Amaranthus retroflexus, pre-emergence, 240 h; for pest or weed control at 125 g/ha: 125 g ai/ha, Preemergence, visual injury rating after approximately 10 d, read-out: Pigweed plant response rating (0 to 100 scale, 0 is no effect, 100 is complete control); for pest or weed control at 500 g/ha: 500 g ai/ha, preemergence, visual injury rating about 10 d after treatment, 0 to 100 scale (0 no effect, 100 complete control), read-out: Pigweed plant response rating
Kochia (Kochia scoparia) [8] = assay: Test A preemergence; details: Bassia scoparia, pre-emergence, 240 h; for pest or weed control at 125 g/ha: 125 g ai/ha, Preemergence, visual injury rating after approximately 10 d, read-out: Kochia plant response rating (0 to 100 scale, 0 is no effect, 100 is complete control); for pest or weed control at 500 g/ha: 500 g ai/ha, preemergence, visual injury rating about 10 d after treatment, 0 to 100 scale (0 no effect, 100 complete control), read-out: Kochia plant response rating
Outline: as §2

[9] = tested on: barnyardgrass (Echinochloa crus-galli); assay: Test A preemergence; details: Echinochloa crus-galli, pre-emergence, 240 h; for pest or weed control at 125 g/ha: 125 g ai/ha, Preemergence, visual injury rating after approximately 10 d, read-out: Barnyardgrass plant response rating (0 to 100 scale, 0 is no effect, 100 is complete control); for pest or weed control at 500 g/ha: 500 g ai/ha, preemergence, visual injury rating about 10 d after treatment, 0 to 100 scale (0 no effect, 100 complete control), read-out: Barnyardgrass plant response rating
Outline: as §2

[10] = tested on: giant foxtail (Setaria faberii); assay: Test A postemergence; details: Setaria faberi, post-emergence, 240 h, read-out: Plant response rating, Foxtail, Giant; for pest or weed control at 125 g/ha: 125 g ai/ha, Postemergence, visual injury after approximately 10 d, 0 to 100 scale where 0 is no effect and 100 is complete control; for pest or weed control at 500 g/ha: 500 g ai/ha, postemergence, visual injury, 0 to 100 scale (0 no effect, 100 complete control), approx. 10 d
Outline: as §2

Kochia (Kochia scoparia) [11] = assay: Test A postemergence; details: Bassia scoparia, post-emergence, 240 h, read-out: Plant response rating, Kochia; for pest or weed control at 125 g/ha: 125 g ai/ha, Postemergence, visual injury after approximately 10 d, 0 to 100 scale where 0 is no effect and 100 is complete control; for pest or weed control at 500 g/ha: 500 g ai/ha, postemergence, visual injury, 0 to 100 scale (0 no effect, 100 complete control), approx. 10 d
Outline: as §2

[12] = tested on: wheat (Triticum aestivum); assay: Test A postemergence; details: Triticum aestivum, post-emergence, 240 h, read-out: Plant response rating, Wheat; for plant injury at 125 g/ha: 125 g ai/ha, Postemergence, visual injury after approximately 10 d, 0 to 100 scale where 0 is no effect and 100 is complete control; for plant injury at 500 g/ha: 500 g ai/ha, postemergence, visual injury, 0 to 100 scale (0 no effect, 100 complete control), approx. 10 d
Outline: as §2

[13] = tested on: barnyardgrass (Echinochloa crus-galli); assay: Test A postemergence; details: Echinochloa crus-galli, post-emergence, 240 h, read-out: Plant response rating, Barnyardgrass; for pest or weed control at 125 g/ha: 125 g ai/ha, Postemergence, visual injury after approximately 10 d, 0 to 100 scale where 0 is no effect and 100 is complete control; for pest or weed control at 500 g/ha: 500 g ai/ha, postemergence, visual injury, 0 to 100 scale (0 no effect, 100 complete control), approx. 10 d
Outline: as §2

Compound	pest or weed control at 250 g/ha [1] [%]	pest or weed control at 250 g/ha [2] [%]	pest or weed control at 250 g/ha (rice (Oryra sativa)) [%]	pest or weed control at 250 g/ha [3] [%]	pest or weed control at 125 g/ha [4] [%]	pest or weed control at 500 g/ha [4] [%]	pest or weed control at 125 g/ha [5] [%]	pest or weed control at 500 g/ha [5] [%]	pest or weed control at 125 g/ha [6] [%]	pest or weed control at 500 g/ha [6] [%]	pest or weed control at 125 g/ha [7] [%]	pest or weed control at 500 g/ha [7] [%]	pest or weed control at 125 g/ha (Kochia (Kochia scoparia) [8]) [%]	pest or weed control at 500 g/ha (Kochia (Kochia scoparia) [8]) [%]	pest or weed control at 125 g/ha [9] [%]	pest or weed control at 500 g/ha [9] [%]	pest or weed control at 125 g/ha [10] [%]	pest or weed control at 500 g/ha [10] [%]	pest or weed control at 125 g/ha (Kochia (Kochia scoparia) [11]) [%]	pest or weed control at 500 g/ha (Kochia (Kochia scoparia) [11]) [%]	also measured
Cc1ccc([C@H]2CN(C)C(=O)[C@@H]2C(=O)Nc2cccc(F)c2C)cc1Cl [Compound 1014]	85	0	70	100	90	90	0	70	0	0	30	30	20	70	90	90	90	90	30	50	plant injury at 125 g/ha [12]: 30%; plant injury at 500 g/ha [12]: 80%; pest or weed control at 125 g/ha [13]: 90%; pest or weed control at 500 g/ha [13]: 90%
CC(=O)Oc1ccc(F)c(NC(=O)[C@H]2C(=O)N(C)C[C@@H]2c2cc(F)cc(F)c2)c1 [Compound 1019]	0	0	0	0	0	0	0	0	0	0	0	0	0	0	0	0	0	0	0	0	plant injury at 125 g/ha [12]: 0%; plant injury at 500 g/ha [12]: 0%; pest or weed control at 125 g/ha [13]: 0%; pest or weed control at 500 g/ha [13]: 0%
O=C1NC[C@H](c2ccc3c(c2)OCO3)[C@H]1C(=O)Nc1ccc(F)cc1F [Compound 1026]	100	0	20	0	30	90	0	0	50	50	0	0	30	80	90	90	0	20	0	0	plant injury at 125 g/ha [12]: 20%; plant injury at 500 g/ha [12]: 30%; pest or weed control at 125 g/ha [13]: 70%; pest or weed control at 500 g/ha [13]: 90%
